We go through one molecule from paper PMC2784364, “VX-166: a novel potent small molecule caspase inhibitor as a potential therapy for sepsis” (Critical Care, 2009).

Read-outs that look alike come from different tables or passages of the source. A value given as a limit tells only on which side of the number the result lay.

One may read the IC50 as the point on the concentration scale where inhibition reaches its midpoint.

One experiment deals with Jurkat cells. Kind of experiment: Staurosporine induced apoptosis in Jurkat cells, Annexin V. In kind it is cell-based. The note with it: Human Jurkat cell line/Annexin V, n = 4, read-out: IC50, inhibition of apoptosis. As to the method:
Jurkat cells were obtained from LGC Standards (Teddington, UK) and were grown in RPMI 1640, 10% FCS, 2 mM L-glutamine, 100 U/ml penicillin and 0.1 mg/ml streptomycin (all from Sigma Aldrich Ltd., Poole, UK) at 37°C in 5% CO2/95% humidity. Receptor- or stress-mediated apoptosis (2 × 10^5 cells/ml) was induced by addition of either anti-Fas antibody CH-11 (10 ng/ml, Millipore UK Ltd., Watford, UK), TNF-α (20 ng/ml, R&D Systems, Abingdon, UK) with cycloheximide (112 ng/ml, Sigma Aldrich Ltd., Poole, UK) or staurosporine (350 ng/ml, Sigma Aldrich Ltd., Poole, UK). VX-166 was diluted into DMSO (10 mM), further diluted in media and added at a range of concentrations. Cells were then incubated for 18 hours. Apoptotic cells were then labelled with Cy5-conjugated Annexin-V (BD Biosciences, Oxford, UK) and detected using a FMAT™ 8100 Fluorimetric Microassay Technology Reader (Applied Biosystems, Warrington, UK). For the experiments using anti-Fas antibody, apoptosis was additionally measured using a Cell Death Detection ELISA kit (Roche Diagnostics Ltd., Lewes, UK) following the manufacturer's instructions.

The target in the next experiment is T1, caspase-4 (Homo sapiens, UniProt P49662).
T1 construct: Active recombinant caspase-1, -3, -4, -7 and -8 were prepared as described previously; made in house
T1 sequence (P49662 81-270 limits assumed): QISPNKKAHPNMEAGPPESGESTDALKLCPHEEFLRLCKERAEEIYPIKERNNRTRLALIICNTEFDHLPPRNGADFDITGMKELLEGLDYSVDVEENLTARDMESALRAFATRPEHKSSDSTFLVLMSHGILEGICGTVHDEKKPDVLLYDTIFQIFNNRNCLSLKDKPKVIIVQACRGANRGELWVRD
T1 sequence (P49662 290-377 limits assumed): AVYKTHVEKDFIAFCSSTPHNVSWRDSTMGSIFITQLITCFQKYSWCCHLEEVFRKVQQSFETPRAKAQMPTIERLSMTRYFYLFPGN
Kind of experiment: Caspase inhibition assay, second-order inactivation rate. In kind it is biochemical. The note with it: recombinant caspase-4, 37°C, n = 4; read-out: Second order inactivation rate constant K. As to the method:
(§1) Active recombinant caspase-1, -3, -4, -7 and -8 were prepared as described previously. Caspase-2 was purchased from Biomol (Exeter, UK), caspase-6 from BD Biosciences (Oxford, UK), caspase-9 from Europa Bioproducts Ltd. (Cambridge, UK) and caspase-10 from Chemicon International Inc. (Harrow, UK). Cathepsin B and granzyme B were purchased from Merck Biosciences Ltd. (Nottingham, UK). Fluorogenic protease substrates were purchased from Bachem Ltd. (St. Helens, UK). All reactions were carried out at 37°C using a Molecular Devices (Wokingham, UK) Gemini plate-reader at 460 nm (excitation wavelength of 390 nm). Caspase inhibition assays were conducted, with minor modifications, as described by Margolin and colleagues. Irreversible kinetics were analysed by calculations of second-order inactivation rate constants (k) using GraphPad (La Jolla, CA, USA) Prism 4.0 software. A larger number for an inactivation rate constant indicates a greater degree of inactivation. To determine the inhibitory effect on cathepsin B, 4.25 nM of the enzyme were added to 250 μM z-RR-AMC in 10 mM 2-morpholino-ethanesulfonic acid pH 6.0, 1 mM DTT, 1 mM EDTA and 0.03% Brij35 in the presence or absence of VX-166 and the reaction monitored continuously over 15 minutes. Granzyme B was assayed, with minor modifications, as described by Thornberry and colleagues. Additional counterscreening against a panel of 83 additional enzymes, ion channels and receptors was carried out at MDS Pharma Services (Bothell, WA, USA).

The target in a further experiment is T2, caspase-8 (Homo sapiens, UniProt Q14790).
T2 construct: Active recombinant caspase-1, -3, -4, -7 and -8 were prepared as described previously; made in house
T2 sequence (Q14790 217-374 limits assumed): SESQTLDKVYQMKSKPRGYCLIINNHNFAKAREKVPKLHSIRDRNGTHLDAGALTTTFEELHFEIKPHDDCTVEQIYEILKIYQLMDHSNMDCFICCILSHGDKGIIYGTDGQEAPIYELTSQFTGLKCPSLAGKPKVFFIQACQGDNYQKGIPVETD
T2 sequence (Q14790 385-479 limits assumed): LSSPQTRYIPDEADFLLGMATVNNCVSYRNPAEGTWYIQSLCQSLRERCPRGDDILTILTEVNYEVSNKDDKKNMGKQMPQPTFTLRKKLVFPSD
The description is as above. In kind it is biochemical. The note with it: recombinant caspase-8, 37°C, n = 4; read-out: Second order inactivation rate constant K. The protocol:
as §1

The next experiment addresses T3, caspase-3 (Homo sapiens, UniProt P42574).
T3 construct: Active recombinant caspase-1, -3, -4, -7 and -8 were prepared as described previously; made in house
Described as above. In kind it is biochemical. As to the method:
as §1

The target in a further experiment is T4, caspase-2 (Homo sapiens, UniProt P42575).
T4 construct: purchased Biomol (Exeter, UK)
T4 sequence (P42575 whole entry): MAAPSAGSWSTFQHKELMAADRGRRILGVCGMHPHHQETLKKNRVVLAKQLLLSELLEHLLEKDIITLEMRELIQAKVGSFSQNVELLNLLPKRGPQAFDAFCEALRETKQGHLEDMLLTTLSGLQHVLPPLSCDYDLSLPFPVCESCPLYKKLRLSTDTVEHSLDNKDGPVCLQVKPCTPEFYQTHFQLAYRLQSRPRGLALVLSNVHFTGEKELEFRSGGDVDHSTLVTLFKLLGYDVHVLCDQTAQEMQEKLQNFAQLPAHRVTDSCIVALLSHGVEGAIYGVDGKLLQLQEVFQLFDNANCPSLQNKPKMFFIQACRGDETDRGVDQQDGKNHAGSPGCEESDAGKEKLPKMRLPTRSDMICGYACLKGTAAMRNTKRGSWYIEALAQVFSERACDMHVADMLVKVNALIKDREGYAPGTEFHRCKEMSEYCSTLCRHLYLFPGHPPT
The experiment is described as above. In kind it is biochemical. As to the method:
as §1

The target in the next experiment is T5, caspase-1 (Homo sapiens, UniProt P29466).
T5 construct: Active recombinant caspase-1, -3, -4, -7 and -8 were prepared as described previously; made in house
T5 sequence (P29466 120-297 limits assumed): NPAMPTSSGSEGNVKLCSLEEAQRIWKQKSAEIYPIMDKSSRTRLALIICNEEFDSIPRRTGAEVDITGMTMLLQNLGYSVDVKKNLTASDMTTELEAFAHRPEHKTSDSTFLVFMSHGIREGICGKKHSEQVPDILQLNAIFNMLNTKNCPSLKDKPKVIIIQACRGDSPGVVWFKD
T5 sequence (P29466 317-404 limits assumed): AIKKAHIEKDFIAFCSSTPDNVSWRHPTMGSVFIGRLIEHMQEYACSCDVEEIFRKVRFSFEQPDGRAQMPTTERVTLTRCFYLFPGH
Described as above. In kind it is biochemical. The note with it: caspase-1, text; read-out: second order inactivation rate constant (k). As to the method:
as §1

In experiment [1] the test system is IL-2 release from peripheral blood mononuclear cells. Kind of experiment: IL-2 release from anti-CD3/CD28 stimulated PBMC. In kind it is cell-based, human. The note with it: at 100 μM. As to the method:
PBMC from healthy donors were isolated as described above. To the wells of a 96-well plate previously coated with 1.5 μg/ml anti-hCD3 (Serotec, Kidlington, UK), 5 × 10^5 cells/ml and 1 μg/ml anti-hCD28 (BD Biosciences, Oxford, UK) were added. Plates were then incubated for 24 hours in the presence or absence of VX-166 or the calcineurin inhibitor FK506 (Merck Biosciences Ltd., Nottingham, UK). IL-2 release into the supernatant was subsequently determined by ELISA (R&D Systems, Abingdon, UK) following the manufacturer's instructions.

The subject of another experiment is Sprague-Dawley rats. Kind of experiment: CLP rat, thymus weight. In kind it is in vivo. The note with it: 25 mg/ml pump, P < 0.01. The protocol:
CLP studies were performed in accordance with the National Institutes of Health guidelines for the use of experimental animals and were approved by the Institutional Animal Care and Use Committee of the Feinstein Institute for Medical Research. Adult male Sprague-Dawley rats (weighing 275 to 325 g, Charles River Laboratories, Wilmington, MA, USA) were fasted overnight then anaesthetised with isoflurane. The caecum was exposed via a 2 cm midline incision. It was ligated just distal to the ileocaecal valve, then punctured twice with an 18-gauge needle and gently squeezed to release a small amount of faecal material to ensure patency of the perforation sites before the abdominal incision was closed. Sham-operated rats underwent the same procedure with the exception that the caecum was neither ligated nor punctured. Animals received subcutaneous fluids (30 ml/kg saline) immediately after the procedure. No antibiotics were administered. In the 7 and 10 day survival studies animals were re-anaesthetised 20 hours after CLP, the perforated caecum was removed and the abdominal cavity washed twice with 40 ml of warm, sterilised saline. The abdominal cavity was closed, anaesthetics withdrawn and rats returned to their cages where they were allowed free access to food and water. In the 20 hour endpoint study the caecum was not removed. […]

Where [2] appears, read: read-out: Second order inactivation rate constant K.

T3 sequence (P42574 29-175 limits assumed): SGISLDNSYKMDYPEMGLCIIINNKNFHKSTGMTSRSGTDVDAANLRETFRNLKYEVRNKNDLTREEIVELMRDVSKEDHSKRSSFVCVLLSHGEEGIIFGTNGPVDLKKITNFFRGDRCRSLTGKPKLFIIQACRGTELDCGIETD
T3 sequence (P42574 176-277 limits assumed): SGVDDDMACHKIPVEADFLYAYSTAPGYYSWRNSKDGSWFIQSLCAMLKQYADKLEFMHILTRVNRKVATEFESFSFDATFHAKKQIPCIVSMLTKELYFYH

Turning to `CCC(C(=O)NC(CC(=O)O)C(=O)COc1c(F)c(F)cc(F)c1F)n1cccc(NC(=O)OC)c1=O` (stereo not shown) [VX-166], the 50% inhibitory concentration (IC50) in the experiment on Jurkat cells is 255 ± 155 nM. Besides, the kinact/KI was 480000 ± 32000 M⁻¹ s⁻¹ at caspase-4; 194000 ± 52000 M⁻¹ s⁻¹ on caspase-8; above 1e+06 M⁻¹ s⁻¹ on caspase-3 (caspase-3, text, read-out: second order inactivation rate constant (k)); 1.17e+06 ± 183000 M⁻¹ s⁻¹ on caspase-3 (setting [2]); 6000 M⁻¹ s⁻¹ at caspase-2 (caspase-2, text, read-out: second order inactivation rate constant (k)); 6190 ± 510 M⁻¹ s⁻¹ at caspase-2 (setting [2]). Besides, at caspase-1, the kinact/KI was above 1e+06 M⁻¹ s⁻¹. For the same molecule, the “inhibition of T-cell activation in vitro” value in experiment [1] was “partial inhibition”. In addition, the “thymus weight of surviving rats on day 10 vs control” value in the experiment with Sprague-Dawley rats was “significantly higher weight”.
